± gives the expanded uncertainty stated by the source.

From the NIST ThermoML archive (doi:10.1021/je060146z) come the findings set out here.

The conditions of this data set: Crystal.
As to `CCCCCCCCCCCCCCCCCC(=O)O` [octadecanoic acid], the Normal melting temperature turned out to be 68.76 ± 1.2 °C.
`CCCCCCCCCC(=O)O` [decanoic acid]: the Normal melting temperature was determined as 31.27 ± 1.2 °C.
The figure for `CCCCCCCCCCCC(=O)O` [dodecanoic acid] is 43.79 ± 1.2 °C; for `CCCCCCCCCCCCCCCC(=O)O` [hexadecanoic acid] it is 62.29 ± 1.2 °C.
The figure for `CCCCCCCCCCCCCC(=O)O` [tetradecanoic acid] is 54.33 ± 1.2 °C.
